In the assay the target is T1, BrF3′H (BrF3′H-8267) (Brassica rapa, UniProt M4CYL5).
T1 construct: full-length ORF, 511 residues, C-terminal V5 and 6xHis tags (pYES-DEST52); yeast WAT11 microsomes with Arabidopsis reductase ATR1 as redox partner
Kind of assay: HPLC of […]'-hydroxylation by yeast microsomes. Format: biochemical. The conditions noted are these: 1 mM NADPH, 100 mM Tris-Cl pH 7.5, 30°C, 20 min, 10 μg microsomal protein, Arabidopsis ATR1 reductase.

Molecules are shown by their SMILES. Read-outs that look alike come from different tables or passages of the source.

T1 sequence (M4CYL5 entry or part of it): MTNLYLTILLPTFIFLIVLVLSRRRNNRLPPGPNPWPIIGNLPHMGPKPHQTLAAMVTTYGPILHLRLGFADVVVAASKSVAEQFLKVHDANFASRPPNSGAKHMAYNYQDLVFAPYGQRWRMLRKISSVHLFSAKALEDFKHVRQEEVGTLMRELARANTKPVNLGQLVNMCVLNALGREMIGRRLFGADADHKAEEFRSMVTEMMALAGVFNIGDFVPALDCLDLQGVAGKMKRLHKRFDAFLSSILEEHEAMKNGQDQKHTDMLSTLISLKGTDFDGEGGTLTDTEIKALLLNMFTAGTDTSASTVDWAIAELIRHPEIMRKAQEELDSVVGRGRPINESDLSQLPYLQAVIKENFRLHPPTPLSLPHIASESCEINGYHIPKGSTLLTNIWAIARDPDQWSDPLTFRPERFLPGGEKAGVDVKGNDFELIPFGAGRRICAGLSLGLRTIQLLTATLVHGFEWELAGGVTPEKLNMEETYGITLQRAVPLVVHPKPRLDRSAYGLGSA

In the case of `O=C1c2c(O)cc(O)cc2OC(c2ccc(O)cc2)C1O` (racemic) [DHK, dihydrokaempferol], the Km (read-out: Substrates / DHK) amounted to 3600 µM. `O=C1CC(c2ccc(O)cc2)Oc2cc(O)cc(O)c21` (racemic) [Nar, naringenin]: the Km (read-out: Substrates / Nar) was 1720 ± 152 µM.

As for `O=c1c(O)c(-c2ccc(O)cc2)oc2cc(O)cc(O)c12` [K, kaempferol], under “read-out: Substrates / K”, the Km is 942 ± 65 µM.

Values taken from article PMC8693655, “Functional Characterization of BrF3'H, Which Determines the Typical Flavonoid Profile of Purple Chinese Cabbage” (Frontiers in Plant Science, 2021).
